Results on three molecules are retold here after ChEMBL document CHEMBL1127893, “Bisindolylmaleimide inhibitors of protein kinase C. Further conformational restriction of a tertiary amine side chain” (Bioorg Med Chem Lett, 1994).

One experiment concerns the target Phosphorylase kinase. Nature of the experiment: Inhibition of phosphorylase kinase (PhK). The experiment is classed as protein-complex assay.
Experiment [1] has as its target T1, Protein kinase C beta type (Rattus norvegicus, UniProt P68403). Nature of the experiment: Inhibition of Protein kinase C beta 1.
The target in experiment [2] is T1, Protein kinase C beta type. Nature of the experiment: Inhibition of Protein kinase C beta.
The target in experiment [3] is cAMP-dependent protein kinase (PKA) (Homo sapiens, UniProt P22694+P17612+P22612). Nature of the experiment: Inhibition of cyclic AMP dependent protein kinase A (PKA). Type of experiment: protein assay.
Experiment [4] addresses Protein kinase C alpha type (Rattus norvegicus, UniProt P05696). As to the kind of experiment: Inhibition of Protein kinase C alpha.
Experiment [5] concerns the target T2, Protein kinase C epsilon type (Rattus norvegicus, UniProt P09216).
T2 sequence (P09216 whole entry): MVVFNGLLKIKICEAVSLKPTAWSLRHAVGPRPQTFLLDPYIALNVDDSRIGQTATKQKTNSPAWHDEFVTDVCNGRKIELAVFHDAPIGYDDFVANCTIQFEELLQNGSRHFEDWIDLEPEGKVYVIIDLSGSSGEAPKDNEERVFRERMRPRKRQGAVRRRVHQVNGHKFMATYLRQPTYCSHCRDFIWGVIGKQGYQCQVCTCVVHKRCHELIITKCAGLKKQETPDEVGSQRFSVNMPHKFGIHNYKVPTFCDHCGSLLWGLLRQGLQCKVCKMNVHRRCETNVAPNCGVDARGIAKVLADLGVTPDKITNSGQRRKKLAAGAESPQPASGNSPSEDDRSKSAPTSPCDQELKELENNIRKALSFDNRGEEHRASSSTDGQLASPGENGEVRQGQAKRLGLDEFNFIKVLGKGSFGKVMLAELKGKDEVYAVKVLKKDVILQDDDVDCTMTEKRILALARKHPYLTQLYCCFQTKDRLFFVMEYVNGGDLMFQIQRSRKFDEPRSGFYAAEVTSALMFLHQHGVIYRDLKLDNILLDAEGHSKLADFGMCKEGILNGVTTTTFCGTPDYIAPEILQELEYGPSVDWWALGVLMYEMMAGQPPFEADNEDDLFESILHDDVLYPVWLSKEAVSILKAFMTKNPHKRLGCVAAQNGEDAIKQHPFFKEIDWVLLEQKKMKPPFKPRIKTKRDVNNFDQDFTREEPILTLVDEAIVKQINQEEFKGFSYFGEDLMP
Nature of the experiment: Inhibition of Protein kinase C epsilon.

The target of experiment [6] is Protein kinase C (PKC). Nature of the experiment: Inhibition of protein kinase C from rat brain (PKC).
The target of experiment [7] is Protein kinase C (PKC). Nature of the experiment: Inhibition of protein kinase C (PKC). Type of experiment: protein assay.
The target in experiment [8] is Protein kinase C gamma type (Rattus norvegicus, UniProt P63319). Nature of the experiment: Inhibition of Protein kinase C gamma (PKC).

T1 sequence (P68403 whole entry): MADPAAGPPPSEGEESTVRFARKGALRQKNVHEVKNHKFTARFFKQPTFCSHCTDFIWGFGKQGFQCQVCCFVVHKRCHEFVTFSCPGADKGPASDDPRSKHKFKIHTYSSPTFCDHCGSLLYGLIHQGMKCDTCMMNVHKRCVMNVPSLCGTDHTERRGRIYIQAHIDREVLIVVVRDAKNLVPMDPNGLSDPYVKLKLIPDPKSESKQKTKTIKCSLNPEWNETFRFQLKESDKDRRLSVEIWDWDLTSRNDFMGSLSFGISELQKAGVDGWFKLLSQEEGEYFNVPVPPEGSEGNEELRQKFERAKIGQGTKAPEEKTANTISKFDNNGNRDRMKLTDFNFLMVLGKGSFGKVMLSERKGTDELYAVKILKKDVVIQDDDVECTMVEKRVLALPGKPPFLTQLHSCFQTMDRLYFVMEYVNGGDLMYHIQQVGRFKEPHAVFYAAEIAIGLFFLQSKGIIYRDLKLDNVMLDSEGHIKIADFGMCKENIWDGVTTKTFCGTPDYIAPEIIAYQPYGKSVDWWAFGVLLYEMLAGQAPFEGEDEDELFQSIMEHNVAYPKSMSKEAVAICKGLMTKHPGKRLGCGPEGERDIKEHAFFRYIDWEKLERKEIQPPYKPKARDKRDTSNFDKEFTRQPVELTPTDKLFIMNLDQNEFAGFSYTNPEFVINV

By IC50 is commonly meant the concentration needed to halve the response being measured. For the molecule `CN1C[C@@H]2Cn3c(c(C4=C(c5cn(C)c6ccccc56)C(=O)NC4=O)c4ccccc43)C[C@H]2C1.Cl` (stereo in doubt; form 1), the IC50 against Phosphorylase kinase was determined as 1.69 µM; in [1], 0.0053 µM; in experiment [2] it was 0.0068 µM; in experiment [3], 2.8 µM; in [4], 0.00285 µM; in experiment [5] it was 0.048 µM. The results for the IC50 (at Protein kinase C (PKC) [6]; against Protein kinase C (PKC) [7]; in experiment [8]) were 0.0068 µM, 0.005 µM and 0.0054 µM, respectively.
On to `CN1C[C@@H]2Cn3c(c(C4=C(c5cn(C)c6ccccc56)C(=O)NC4=O)c4ccccc43)C[C@H]2C1.Cl` (stereo in doubt; form 2), for which the IC50 worked out at 3.8 µM on Phosphorylase kinase, 5.5 µM in experiment [3] and 0.008 µM against Protein kinase C (PKC) [7].
Regarding `CN(C)C[C@H]1CCn2c(c(C3=C(c4cn(C)c5ccccc45)C(=O)NC3=O)c3ccccc32)C1` [RO-320432], the IC50 was 15.6 µM against Phosphorylase kinase; 0.028 µM in experiment [1]; 0.0305 µM in experiment [2]; 223.375 µM in experiment [3]; 0.0088 µM in [4]; 0.105 µM in experiment [5]. Also, the figures for the IC50 (on Protein kinase C (PKC) [6]; in [8]) were 0.021 µM and 0.0365 µM, respectively.
